Molecular target: T1, PfPLP2 (rPMD2, pan-MACPF domain of perforin-like protein 2) (Plasmodium falciparum, UniProt Q8I5P0)
T1 construct: gene PF3D7_1216700; rPMD2, recombinant His-tagged MACPF domain of PfPLP2
Experiment: inhibition of erythrocyte lysis by purified rPMD2; thermal protection of purified rPMD2 (modified CETSA)
Assay type: biochemical

T1 sequence (Q8I5P0 entry or part of it): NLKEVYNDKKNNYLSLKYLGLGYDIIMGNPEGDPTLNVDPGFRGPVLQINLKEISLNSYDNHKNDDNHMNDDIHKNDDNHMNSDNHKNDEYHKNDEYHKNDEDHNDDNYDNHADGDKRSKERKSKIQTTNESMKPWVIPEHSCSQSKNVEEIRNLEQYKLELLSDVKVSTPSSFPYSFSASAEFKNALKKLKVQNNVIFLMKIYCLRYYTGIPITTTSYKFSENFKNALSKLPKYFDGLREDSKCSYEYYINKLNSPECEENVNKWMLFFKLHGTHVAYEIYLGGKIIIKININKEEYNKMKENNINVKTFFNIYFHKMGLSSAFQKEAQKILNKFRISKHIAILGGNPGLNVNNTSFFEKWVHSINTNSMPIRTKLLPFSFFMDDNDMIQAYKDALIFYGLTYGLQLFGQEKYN

Compound	inhibition of erythrocyte lysis by purified rPMD2; thermal protection of purifie
O=C1NC(=S)N/C1=C\c1csc2ccccc12 [C02, (Z)-5-(benzo[b]thiophen-3-ylmethylene)-2-thioxoimidazolidin-4-one]	C01 and C02 could inhibit the activity of both rPMD1 and rPMD2 in the sub-micromolar range
Cn1cc(/C=C2\NC(=S)NC2=O)c2ccccc21 [C01, (Z)-5-((1-methyl-1H-indol-3-yl)methylene)-2-thioxoimidazolidin-4-one]	C01 and C02 could inhibit the activity of both rPMD1 and rPMD2 in the sub-micromolar range
